From patent publication US20260262643A1, “HERBICIDAL BENZOXAZINES” (FMC CORPORATION, priority 2022, published 2026)

Assays:
[1] = test system: rice; assay: Test D flooded paddy test; format: in vivo, Oryza sativa; settings: 250 g ai/ha, applied to paddy water, visual rating after 13 to 14 days, scale 0 to 100 (0 no effect, 100 complete control)
In short: (§1)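 At the 2-leaf stage, floodwater 3 cm deep received the test compound; that depth persisted throughout. Plants scored visually 13 to 14 days on, 0 (no effect) to 100 (complete control), dash indicating no result.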

[2] = test system: kochia; assay: Test C postemergence; format: in vivo, Bassia scoparia; settings: 10 days
In short: (§2)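 Pre: seeds in loam/sand, directed soil spray. Post: 1–2 leaf plants, 2–10 cm. Cmpd in non-phytotoxic solvent + surfactant. Greenhouse 10 d; visual rating vs untreated, 0 = none, 100 = complete control.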

[3] = test system: blackgrass; assay: Test C preemergence; format: in vivo, Alopecurus myosuroides; settings: for Plant response rating, Blackgrass: Preemergence; for Blackgrass plant response rating: preemergence
In short: as §2

[4] = test system: wheat; assay: Test C preemergence; format: in vivo, Triticum aestivum; settings: for Plant response rating, Wheat: Preemergence; for Wheat plant response rating: preemergence
In short: as §2

[5] = test system: horseweed; assay: Test C postemergence; format: in vivo, Erigeron canadensis; settings: 10 days
In short: as §2

[6] = test system: wheat; assay: Test C postemergence; format: in vivo, Triticum aestivum; settings: 10 days
In short: as §2

[7] = test system: green foxtail; assay: Test C preemergence; format: in vivo, Setaria viridis; settings: for Plant response rating, Foxtail, Green: Preemergence; for Foxtail, Green plant response rating: preemergence
In short: as §2

[8] = test system: ryegrass, Italian; assay: Test C preemergence; format: in vivo, Lolium multiflorum; settings: for Plant response rating, Ryegrass, Italian: Preemergence; for Ryegrass, Italian plant response rating: preemergence
In short: as §2

[9] = test system: sedge, umbrella; assay: Test D flooded paddy test; format: in vivo, Cyperus difformis; settings: 250 g ai/ha, applied to paddy water, visual rating after 13 to 14 days, scale 0 to 100 (0 no effect, 100 complete control)
In short: as §1

[10] = test system: corn; assay: Test C preemergence; format: in vivo, Zea mays; settings: for Plant response rating, Corn: Preemergence; for Corn plant response rating: preemergence
In short: as §2

[11] = test system: pigweed, palmer; assay: Test C preemergence; format: in vivo, Amaranthus palmeri; settings: for Plant response rating, Pigweed, Palmer: Preemergence; for Pigweed, Palmer plant response rating: preemergence
In short: as §2

[12] = test system: ryegrass, Italian; assay: Test C postemergence; format: in vivo, Lolium multiflorum; settings: 10 days
In short: as §2

[13] = test system: barnyardgrass; assay: Test C preemergence; format: in vivo, Echinochloa crusgalli; settings: for Plant response rating, Barnyardgrass: Preemergence; for Barnyardgrass plant response rating: preemergence
In short: as §2

[14] = test system: green foxtail; assay: Test C postemergence; format: in vivo, Setaria viridis; settings: 10 days
In short: as §2

[15] = test system: pigweed, palmer; assay: Test C postemergence; format: in vivo, Amaranthus palmeri; settings: 10 days
In short: as §2

[16] = test system: barnyardgrass; assay: Test C postemergence; format: in vivo, Echinochloa crusgalli; settings: 10 days
In short: as §2

[17] = test system: oat, wild; assay: Test C preemergence; format: in vivo, Avena fatua; settings: for Plant response rating, Oat, Wild: Preemergence; for Oat, Wild plant response rating: preemergence
In short: as §2

[18] = test system: corn; assay: Test C postemergence; format: in vivo, Zea mays; settings: 10 days
In short: as §2

[19] = test system: soybean; assay: Test C postemergence; format: in vivo, Glycine max; settings: 10 days
In short: as §2

[20] = test system: barnyardgrass; assay: Test D flooded paddy test; format: in vivo, Echinochloa crus-galli; settings: 250 g ai/ha, applied to paddy water, visual rating after 13 to 14 days, scale 0 to 100 (0 no effect, 100 complete control)
In short: as §1

[21] = test system: galium; assay: Test C postemergence; format: in vivo, Galium aparine; settings: 10 days
In short: as §2

[22] = test system: ragweed; assay: Test C preemergence; format: in vivo, Ambrosia artemisiifolia; settings: for Plant response rating, Ragweed: Preemergence; for Ragweed plant response rating: preemergence
In short: as §2

[23] = test system: blackgrass; assay: Test C postemergence; format: in vivo, Alopecurus myosuroides; settings: 10 days
In short: as §2

[24] = test system: oat, wild; assay: Test C postemergence; format: in vivo, Avena fatua; settings: 10 days
In short: as §2

[25] = test system: ducksalad; assay: Test D flooded paddy test; format: in vivo, Heteranthera limosa; settings: 250 g ai/ha, applied to paddy water, visual rating after 13 to 14 days, scale 0 to 100 (0 no effect, 100 complete control)
In short: as §1

[26] = test system: kochia; assay: Test C preemergence; format: in vivo, Bassia scoparia; settings: for Plant response rating, Kochia: Preemergence; for Kochia plant response rating: preemergence
In short: as §2

[27] = test system: ragweed; assay: Test C postemergence; format: in vivo, Ambrosia artemisiifolia; settings: 10 days
In short: as §2

[28] = test system: soybean; assay: Test C preemergence; format: in vivo, Glycine max; settings: for Plant response rating, Soybean: Preemergence; for Soybean plant response rating: preemergence
In short: as §2

[29] = 125 g ai/ha, postemergence, 0 to 100 scale, 0 no effect, 100 complete control
[30] = Postemergence, 500 g ai/ha, visual 0 to 100 scale (0 no effect, 100 complete control)
[31] = 500 g ai/ha, visual rating after 10 days, 0 to 100 scale (0 no effect, 100 complete control)
[32] = Test C, 125 g ai/ha, 0 to 100 scale (0 no effect, 100 complete control)
[33] = 500 g ai/ha, postemergence, 0 to 100 scale (0 no effect, 100 complete control)
[34] = Postemergence, 125 g ai/ha, 0 to 100 scale (0 no effect, 100 complete control)
[35] = 500 g ai/ha, 0 to 100 scale (0 no effect, 100 complete control)
[36] = 125 g ai/ha, 0 to 100 scale, 0 no effect, 100 complete control

With Cc1cc(-n2cnc(C(C)C)n2)cc(C(=O)N2C[C@H](C)Oc3c(Cl)cccc32)c1C [Compound 259] the “Plant response rating, Rice (Flood)” value [1] was 0, the “Plant response rating, Kochia” value [2, 29] was 70 and the “Plant response rating, Kochia” value [2, 30] was 80. For the same molecule, the “Plant response rating, Blackgrass” value [3, 31] was 70, the “Blackgrass plant response rating” value [3, 32] was 50 and the “Plant response rating, Wheat” value [4, 31] was 90. For the same molecule, the “Wheat plant response rating” value [4, 32] was 50, the “Plant response rating, Horseweed” value [5, 29] was 0 and the “Plant response rating, Horseweed” value [5, 30] was 0. For the same molecule, the “Plant response rating, Wheat” value [6, 29] was 20, the “Plant response rating, Wheat” value [6, 30] was 20 and the “Plant response rating, Foxtail, Green” value [7, 31] was 100. For the same molecule, the “Foxtail, Green plant response rating” value [7, 32] was 100, the “Plant response rating, Ryegrass, Italian” value [8, 31] was 100 and the “Ryegrass, Italian plant response rating” value [8, 32] was 90. The “Plant response rating, Sedge, Umbrella (Flood)” value [9] was 0, the “Plant response rating, Corn” value [10, 31] was 30 and the “Corn plant response rating” value [10, 32] was 30. The “Plant response rating, Pigweed, Palmer” value [11, 31] was 100, the “Pigweed, Palmer plant response rating” value [11, 32] was 100 and the “Plant response rating, Ryegrass, Italian” value [12, 29] was 30. The “Plant response rating, Ryegrass, Italian” value [12, 30] was 50, the “Plant response rating, Barnyardgrass” value [13, 31] was 90 and the “Barnyardgrass plant response rating” value [13, 32] was 30. The “Plant response rating, Foxtail, Green” value [14, 29] was 40, the “Plant response rating, Foxtail, Green” value [14, 30] was 90 and the “Plant response rating, Pigweed, Palmer” value [15, 29] was 90. For the same molecule, the “Plant response rating, Pigweed, Palmer” value [15, 30] was 90, the “Plant response rating, Barnyardgrass” value [16, 29] was 20 and the “Plant response rating, Barnyardgrass” value [16, 30] was 70. The “Plant response rating, Oat, Wild” value [17, 31] was 90, the “Oat, Wild plant response rating” value [17, 32] was 60 and the “Plant response rating, Corn” value [18, 29] was 10. For the same molecule, the “Plant response rating, Corn” value [18, 30] was 30, the “Plant response rating, Soybean” value [19, 29] was 100 and the “Plant response rating, Soybean” value [19, 30] was 100. The “Plant response rating, Barnyardgrass (Flood)” value [20] was 0, the “Plant response rating, Galium” value [21, 29] was 100 and the “Plant response rating, Galium” value [21, 30] was 100. For the same molecule, the “Plant response rating, Ragweed” value [22, 31] was 0, the “Ragweed plant response rating” value [22, 32] was 30 and the “Plant response rating, Blackgrass” value [23, 29] was 70. The “Plant response rating, Blackgrass” value [23, 30] was 80, the “Plant response rating, Oat, Wild” value [24, 29] was 30 and the “Plant response rating, Oat, Wild” value [24, 30] was 30. For the same molecule, the “Plant response rating, Ducksalad (Flood)” value [25] was 0, the “Plant response rating, Kochia” value [26, 31] was 100 and the “Kochia plant response rating” value [26, 32] was 90. The “Plant response rating, Ragweed” value [27, 29] was 20, the “Plant response rating, Ragweed” value [27, 30] was 50 and the “Plant response rating, Soybean” value [28, 31] was 100. The “Soybean plant response rating” value [28, 32] was 20.

In the case of Cc1cccc2c1OC(C(F)(F)F)CN2C(=O)c1cccc(-n2cnc(C(C)(C)C)n2)c1 (centres unmarked) [Compound 347], the “Plant response rating, Rice (Flood)” value [1] is reported as 0, the “Plant response rating, Kochia” value [2, 33] is reported as 70 and the “Plant response rating, Kochia” value [2, 34] is reported as 50. The “Blackgrass plant response rating” value [3, 35] was 30, the “Plant response rating, Blackgrass” value [3, 36] was 10 and the “Wheat plant response rating” value [4, 35] was 40. For the same molecule, the “Plant response rating, Wheat” value [4, 36] was 20, the “Plant response rating, Horseweed” value [5, 33] was 20 and the “Plant response rating, Horseweed” value [5, 34] was 0. The “Plant response rating, Wheat” value [6, 33] was 10, the “Plant response rating, Wheat” value [6, 34] was 10 and the “Foxtail, Green plant response rating” value [7, 35] was 100. The “Plant response rating, Foxtail, Green” value [7, 36] was 90, the “Ryegrass, Italian plant response rating” value [8, 35] was 100 and the “Plant response rating, Ryegrass, Italian” value [8, 36] was 100. The “Plant response rating, Sedge, Umbrella (Flood)” value [9] was 0, the “Corn plant response rating” value [10, 35] was 10 and the “Plant response rating, Corn” value [10, 36] was 0. The “Pigweed, Palmer plant response rating” value [11, 35] was 70, the “Plant response rating, Pigweed, Palmer” value [11, 36] was 80 and the “Plant response rating, Ryegrass, Italian” value [12, 33] was 30. The “Plant response rating, Ryegrass, Italian” value [12, 34] was 20, the “Barnyardgrass plant response rating” value [13, 35] was 100 and the “Plant response rating, Barnyardgrass” value [13, 36] was 20. The “Plant response rating, Foxtail, Green” value [14, 33] was 60, the “Plant response rating, Foxtail, Green” value [14, 34] was 20 and the “Plant response rating, Pigweed, Palmer” value [15, 33] was 80. The “Plant response rating, Pigweed, Palmer” value [15, 34] was 80, the “Plant response rating, Barnyardgrass” value [16, 33] was 20 and the “Plant response rating, Barnyardgrass” value [16, 34] was 10. For the same molecule, the “Oat, Wild plant response rating” value [17, 35] was 70, the “Plant response rating, Oat, Wild” value [17, 36] was 60 and the “Plant response rating, Corn” value [18, 33] was 10. For the same molecule, the “Plant response rating, Corn” value [18, 34] was 10, the “Plant response rating, Soybean” value [19, 33] was 100 and the “Plant response rating, Soybean” value [19, 34] was 100. For the same molecule, the “Plant response rating, Barnyardgrass (Flood)” value [20] was 0, the “Plant response rating, Galium” value [21, 33] was 80 and the “Plant response rating, Galium” value [21, 34] was 90. The “Ragweed plant response rating” value [22, 35] was 30, the “Plant response rating, Ragweed” value [22, 36] was 0 and the “Plant response rating, Blackgrass” value [23, 33] was 60. The “Plant response rating, Blackgrass” value [23, 34] was 10, the “Plant response rating, Oat, Wild” value [24, 33] was 10 and the “Plant response rating, Oat, Wild” value [24, 34] was 10. The “Plant response rating, Ducksalad (Flood)” value [25] was 0, the “Kochia plant response rating” value [26, 35] was 60 and the “Plant response rating, Kochia” value [26, 36] was 50. For the same molecule, the “Plant response rating, Ragweed” value [27, 33] was 50, the “Plant response rating, Ragweed” value [27, 34] was 20 and the “Soybean plant response rating” value [28, 35] was 30. The “Plant response rating, Soybean” value [28, 36] was 30.
